Data: PMC4641600, “Novel Activities of Select NSAID R-Enantiomers against Rac1 and Cdc42 GTPases” (PLoS ONE, 2015)
Read-outs that look alike come from different tables or passages of the source.

Tests used:
[1] = molecular target: Rac1Q61L activating mutant (Homo sapiens, UniProt P63000, Q61L); test: Dose response, BODIPY-GTP binding; conditions: 10 nM to 100 µM
Rac1 wt = Rac1 wt (Homo sapiens, UniProt P63000); test: Dose response, BODIPY-GTP binding; conditions: 10 nM to 100 µM
Rab7 = Rab7 (Homo sapiens, UniProt P51149); test: Dose response, BODIPY-GTP binding; conditions: 10 nM to 100 µM
Rab7, sequence (P51149 whole entry, species assumed): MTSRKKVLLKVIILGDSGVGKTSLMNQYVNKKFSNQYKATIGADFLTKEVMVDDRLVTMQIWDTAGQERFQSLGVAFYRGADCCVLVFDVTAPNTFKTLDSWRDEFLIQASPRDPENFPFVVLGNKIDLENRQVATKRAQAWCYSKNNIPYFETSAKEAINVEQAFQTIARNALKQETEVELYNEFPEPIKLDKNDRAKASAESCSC

human COX-1 = molecular target: T1, human COX-1 (Homo sapiens, UniProt P23219); test: Cyclooxygenase assay (CEREP), PGE2 formation; format: biochemical; conditions: for IC50: recombinant enzyme, 4 μM arachidonic acid
T1 construct: purchased CEREP Laboratories (contract assay); host or cells: Sf-9
T1 sequence (P23219 24-599): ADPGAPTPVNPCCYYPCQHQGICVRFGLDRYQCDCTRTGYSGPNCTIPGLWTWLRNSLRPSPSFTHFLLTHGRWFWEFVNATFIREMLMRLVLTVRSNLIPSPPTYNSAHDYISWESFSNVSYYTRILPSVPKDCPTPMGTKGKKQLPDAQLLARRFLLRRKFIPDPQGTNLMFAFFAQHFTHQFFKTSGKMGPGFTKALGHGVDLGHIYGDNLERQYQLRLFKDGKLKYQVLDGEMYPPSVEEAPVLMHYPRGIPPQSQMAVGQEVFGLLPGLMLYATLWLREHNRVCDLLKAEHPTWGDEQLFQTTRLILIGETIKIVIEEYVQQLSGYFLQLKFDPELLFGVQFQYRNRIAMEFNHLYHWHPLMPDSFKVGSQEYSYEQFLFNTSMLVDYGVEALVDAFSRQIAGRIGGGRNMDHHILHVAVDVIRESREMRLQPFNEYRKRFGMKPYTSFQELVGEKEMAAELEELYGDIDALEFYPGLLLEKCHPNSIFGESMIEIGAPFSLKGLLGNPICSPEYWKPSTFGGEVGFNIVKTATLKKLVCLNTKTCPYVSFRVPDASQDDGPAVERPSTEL

[2] = tested on: migration Rac1/Cdc42 dependent; set-up: method as in ref 28 (a number printed in a supplementary file, which may have a reference list of its own: not looked up in the article's list); conditions: read-out: IC50 migration Rac1/Cdc42 dependent (est); cited from earlier work
Cdc42 wt = Cdc42 wt (Homo sapiens, UniProt P60953); test: Dose response, BODIPY-GTP binding; conditions: 10 nM to 100 µM
Cdc42 wt, sequence (P60953 whole entry): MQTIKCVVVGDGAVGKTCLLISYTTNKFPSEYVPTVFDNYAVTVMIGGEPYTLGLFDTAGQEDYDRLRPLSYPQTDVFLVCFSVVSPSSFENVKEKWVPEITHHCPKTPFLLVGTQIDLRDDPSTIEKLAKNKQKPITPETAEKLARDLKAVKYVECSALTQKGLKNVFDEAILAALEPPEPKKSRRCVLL

Cdc42 [3] = conditions: cited from earlier work
[4] = molecular target: Cdc42Q61L activating mutant (Homo sapiens, UniProt P60953, Q61L); test: Dose response, BODIPY-GTP binding; conditions: 10 nM to 100 µM; read-out: Cdc42 (act) EC50
Cdc42Q61L activating mutant, sequence (P60953 whole entry Q61L): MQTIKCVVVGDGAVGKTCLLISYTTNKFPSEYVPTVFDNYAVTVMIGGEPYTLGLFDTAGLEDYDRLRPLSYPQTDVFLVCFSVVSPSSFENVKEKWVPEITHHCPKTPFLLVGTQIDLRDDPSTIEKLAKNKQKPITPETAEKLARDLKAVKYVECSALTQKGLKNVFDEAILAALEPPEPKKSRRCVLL

H-Ras wt = H-Ras wt (Homo sapiens, UniProt P01112); test: Dose response, BODIPY-GTP binding; conditions: 10 nM to 100 µM
Description: (§1) For multiplex analyses of small GTPases, 4 μm diameter glutathione-beads (GSH-beads) distinguished by seven different intensities of red fluorescence were used according to our previously described protocols. The GST-GTPases included the following eight Ras-related small GTPases: Rab2 wt, Rab7 wt, Cdc42 wt, Cdc42Q61L activating mutant, H-Ras wt, H-RasG12V, Rac1 wt and Rac1Q61L activating mutant. Briefly, Prestwick Chemical Library® compounds were tested at 10 μM compound and 1% DMSO final concentrations. After a 10 min pre-incubation with the compound BODIPY- FL-GTP (100 nM final) was added to each well and bead associated fluorescence was measured. Sample analysis was conducted with a HyperCyt® high throughput flow cytometry platform. Flow cytometric light scatter at 488 nm and fluorescence emission at 530 +/− 20 nm (FL1) and 665 +/− 10 nm (FL8) were collected on a Cyan ADP flow cytometer (Beckman Coulter, Fullerton, CA). IDLQuery software was used to determine the compound activity in each well. Gating based on forward scatter (FS) and side scatter (SS) parameters was used to identify singlet bead populations. Gating based on FL8 emission distinguishes the beads coated with different proteins, and the median FL1 fluorescence per bead population were calculated. A compound was considered a “potential active” if the change in BODIPY-FL-GTP binding differed greater than 20% from that measured in DMSO treated controls.
(§2) Test compounds identified for follow-up after the primary screen were tested at dilutions ranging from 10 nM to 100 μM final concentration against individual GTPases in multiplex and single-plex assays. Compounds tested in dose response assays were serially diluted 1:3 a total of eight times from a starting concentration of 10 mM giving a 9-point dilution series in DMSO.
(§3) bConfirmatory screens entailed dose response assays conducted in a multiplex format with eight GTPases tested as for primary screen. BODIPY-GTP-binding activity was
(§4) measured in the presence of 10 nM to 100 µM of each of 11 test compounds (4 primary screen hits and 7 additional NSAIDs considered to have chemical similarity to GTPase
(§5) active compounds). GST-GFP coated beads served as a control to detect non-specific dissociation or denaturation caused by compound addition–none of the tested NSAIDs had
(§6) any effect on bead-GST-protein binding. EC50 values were determined using Prism to determine dose response fits as shown in Figure 1 of main text; fits have R2 > 0.9. Active
(§7) compounds based on same definition used as in primary screena. […]

human COX-2 = molecular target: T2, human COX-2 (Homo sapiens, UniProt P35354); test: Cyclooxygenase assay (CEREP), PGE2 formation; format: biochemical; conditions: recombinant enzyme, 4 μM arachidonic acid
T2 construct: purchased CEREP Laboratories (contract assay); host or cells: Sf-9
T2 sequence (P35354 18-604): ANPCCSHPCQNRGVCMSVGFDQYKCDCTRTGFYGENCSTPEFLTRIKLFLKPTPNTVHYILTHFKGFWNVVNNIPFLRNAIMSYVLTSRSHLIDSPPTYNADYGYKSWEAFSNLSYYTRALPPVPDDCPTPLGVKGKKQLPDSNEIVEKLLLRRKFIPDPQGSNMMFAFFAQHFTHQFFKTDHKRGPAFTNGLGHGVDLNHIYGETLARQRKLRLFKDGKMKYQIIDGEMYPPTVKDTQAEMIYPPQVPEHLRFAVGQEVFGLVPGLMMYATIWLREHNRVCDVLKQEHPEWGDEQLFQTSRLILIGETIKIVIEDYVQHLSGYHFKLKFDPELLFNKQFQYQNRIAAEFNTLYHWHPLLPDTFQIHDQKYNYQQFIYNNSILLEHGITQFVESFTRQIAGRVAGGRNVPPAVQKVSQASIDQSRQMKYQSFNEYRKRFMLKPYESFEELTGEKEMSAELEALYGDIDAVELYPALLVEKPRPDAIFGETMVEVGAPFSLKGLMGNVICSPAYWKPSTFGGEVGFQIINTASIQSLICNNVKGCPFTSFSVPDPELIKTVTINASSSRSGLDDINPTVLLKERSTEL

H-RasG12V = H-RasG12V (Homo sapiens, UniProt P01112, G12V); test: Dose response, BODIPY-GTP binding; conditions: 10 nM to 100 µM
Description: as §1, §2, §3, §4, §5, §6, §7
(§8) ‡A well-characterized selective Cdc42 inhibitor served as a positive control.

Rab2 = Rab2 (Homo sapiens, UniProt P61019); test: Dose response, BODIPY-GTP binding; conditions: 10 nM to 100 µM
Rab2, sequence (P61019 whole entry, species assumed): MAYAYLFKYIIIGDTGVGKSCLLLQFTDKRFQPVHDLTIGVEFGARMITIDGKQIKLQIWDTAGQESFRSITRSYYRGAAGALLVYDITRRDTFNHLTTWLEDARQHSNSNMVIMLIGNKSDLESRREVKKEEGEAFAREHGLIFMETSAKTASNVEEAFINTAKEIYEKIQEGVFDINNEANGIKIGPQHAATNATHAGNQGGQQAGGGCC

COX-1 = conditions: IC50 values not calculated; thromboxane B2, collagen-stimulated human platelets; cited from earlier work
Ras-related GTPases = test: Confirmatory dose response assays on eight Ras-related GTPases; format: binding
Description: as §1, §2, §3, §4, §5, §6, §7, §8

[5] = tested on: Rac1 membrane localization; test: Rac1 immunolocalization, OvCa433 cells; format: cell-based, human
OvCa433 cells = conditions: 0-300 µM, 48 h
OvCa429 cells = conditions: 300 μM, relative to 6-MNA
Rac1 [6] = molecular target: T3, Rac1 (Mus musculus, UniProt P63001); test: GLISA, Swiss 3T3 cells; format: cell-based; conditions: for EGF-mediated Rac1 activation: 300 μM
T3 construct: endogenous in cells; host or cells: Swiss 3T3

[7] = tested on: Rab2 wt, Rab7 wt, Cdc42 wt, Cdc42Q61L, H-Ras wt, H-RasG12V, Rac1 wt and Rac1Q61L; test: Primary multiplex screen, BODIPY-FL-GTP binding on bead-bound GTPases (flow cytometry)
[8] = tested on: Tiam1 membrane localization; test: Tiam1 immunolocalization, OvCa433 cells; format: cell-based, human
Description: OvCa433 were plated on coverslips, treated with 300 μM NSAIDs for 1 h, fixed with 3% paraformaldehyde and immunostained for Rac1 or Tiam1. Actin was visualized with rhodamine phalloidin from Invitrogen (F432). Cells were imaged on a Zeiss LSM510 using a 63x objective and quantified using Image J.
Rac1 and Tiam1 antibodies were confirmed in our hands to recognize single protein species of the predicted molecular weight by immunoblot.

[9] = tested on: Rac1 and Tiam1 protein levels; test: Immunoblot of protein levels; format: cell-based, human
Description: Cells were stimulated with EGF at a final concentration of 1 nM for 10 min. Cells were lysed in a RIPA buffer consisting of 50 mM Tris pH 7.4, 1% NP-40, 0.25% sodium deoxycholate, 150 mM NaCl, 1 mM EDTA, 1 mM PMSF, 1 mM sodium vanadate, 10 mM sodium fluoride, 1 μg/mL each of pepstatin, aprotinin and leupeptin, 10 mM sodium pyrophosphate and 10 mM beta-glycerophosphate.
N = 3. See also Figure D in S1 File for time dependent loss of Rac1 membrane localization. N = 3 (B) Quantification of image intensity using Image J of 3 representative confocal images as shown in panel (A) containing 20–30 cells/field normalized to actin and untreated controls. (C) Western blot analyses of lysates from cells treated with 300 μM compound as indicated for 24 h as compared to untreated controls. […] Blots were probed for Tiam1 (200 kDa), GAPDH (37 kDa), Rac1 (20 kDa), as a loading control. (D) Quantification of image intensity using Image J. Each marker was normalized to GAPDH and untreated controls. N = 3.

Cdc42 [10] = molecular target: T4, Cdc42 (Mus musculus, UniProt P60766); test: GLISA, Swiss 3T3 cells; format: cell-based
T4 construct: endogenous in cells; host or cells: Swiss 3T3
T4 sequence (P60766 whole entry): as the sequence (P60953 whole entry) above

[11] = IV dose of 30 mg; cited from earlier work
[12] = tested on: migration Rac1/Cdc42 dependent; test: Migration IC50 (Table F); format: cell-based; conditions: ketorolac, calculated by GraphPad Prism5; read-out: IC50 migration Rac1/Cdc42 dependent (est)
Rac1 [13] = molecular target: T5, Rac1 (Homo sapiens, UniProt P63000); test: G-trap flow cytometric effector binding assay, HeLa cells; format: cell-based; conditions: ketorolac enantiomers
T5 construct: endogenous in cells; host or cells: HeLa

Cdc42 [14] = molecular target: T6, Cdc42 (Homo sapiens, UniProt P60953); test: as above; format: cell-based; conditions: ketorolac enantiomers, EGF stimulation, read-out: EC50 against Cdc42
T6 construct: endogenous in cells; host or cells: HeLa
T6 sequence (P60953 whole entry): as above

COX-2 = tested on: COX-2; set-up: method as in ref 15 (a number printed in a supplementary file, which may have a reference list of its own: not looked up in the article's list); conditions: ovine seminal vesicles or human whole blood; cited from earlier work
purified ovine COX-2 = tested on: purified ovine COX-2; set-up: method as in ref 14 (a number printed in a supplementary file, which may have a reference list of its own: not looked up in the article's list); conditions: purified ovine enzyme; cited from earlier work
purified ovine COX-1 = tested on: purified ovine COX-1; set-up: method as in ref 14 (a number printed in a supplementary file, which may have a reference list of its own: not looked up in the article's list); conditions: purified ovine enzyme; cited from earlier work
[15] = tested on: OvCa429 and OvCa433 cells; test: Boyden chamber cell migration assay; format: cell-based, human; conditions: estimated from limited dose response data; read-out: IC50 migration Rac1/Cdc42 dependent (est)
Rac1 [16] = conditions: cited from earlier work
[17] = immunofluorescence quantified using ImageJ

COc1ccc(C2CC(c3ccccc3)=NN2c2ccc(S(N)(=O)=O)cc2)cc1 (stereo not shown) [CID2950007/ML141]
Rac1 (act) EC50 [1]: inactive
Rac1 wt EC50 (Rac1 wt): inactive
Rab7 EC50 (Rab7): inactive
IC50 (human COX-1): 1800 nM
IC50 [2]: ~10000 nM
EC50 (Cdc42 wt): 2600 nM
IC50 (Cdc42 [3]): 2100 to 2600 nM
EC50 [4]: 5400 nM
H-Ras wt EC50 (H-Ras wt): inactive
IC50 (human COX-2): 580 nM
H-Ras (act) EC50 (H-RasG12V): inactive
Rab2 EC50 (Rab2): inactive

COc1ccc2cc([C@@H](C)C(=O)O)ccc2c1 [R-naproxen]
COX-1 Previously Published (COX-1): R>S
activity against the GTPases in confirmatory dose response assays (words) (Ras-related GTPases; 10 nM to 100 µM): varying activity levels
EC50 (Ras-related GTPases; additional confirmatory dose response assays, different conditions): 3000 to 18000 nM
Rac1 membrane localization ([5]; 300 μM): substantially reduced
Rac PM Localiz. [5, 17]: 34%
Rab7 EC50 (Rab7): inactive
cytotoxicity (OvCa433 cells): not cytotoxic
invadopodia formation (OvCa429 cells): inhibited
EGF-mediated Rac1 activation (Rac1 [6]; 15 min pretreatment): significantly inhibited
EGF-mediated Rac1 activation (Rac1 [6]; 1 h pretreatment): reduced activation to basal unstimulated levels
inhibition at 300 µM (Rac1 [6]; Swiss-3T3, at 300 µM): 100%
primary screen outcome ([7]; 10 μM compound): positive and hit
Primary Screen Hit ([7]; single dose 10 µM, change in BODIPY-GTP binding on any one GTPase): Active
Tiam1 membrane localization ([8]; 300 μM): substantially reduced
Tiam1 GEF PM localiz. [8, 17]: 32%
H-Ras wt EC50 (H-Ras wt): inactive
H-Ras (act) EC50 (H-RasG12V): inactive
Rab2 EC50 (Rab2): inactive
total Rac1 or Tiam1 protein levels ([9]; 300 μM, 24 h, immunoblot): did not alter
Rac protein expression ([9]; immunoblot analysis): No change

O=C(c1ccccc1)c1ccc2n1CCC2C(=O)O (racemic) [racemic ketorolac, ketorolac]
effect on Cdc42 relative to R-ketorolac (Cdc42 [10]; at 10 μM): approximately half the effect
Cmax [11]: 13.7 µM
IC50 [12]: 34000 nM

O=C(c1ccccc1)c1ccc2n1CC[C@H]2C(=O)O [R-ketorolac]
EC50 (Rac1 [13]; EGF stimulation, read-out: EC50 against Rac1): 574 nM
dose of maximal inhibition of Cdc42 activation (Cdc42 [10]; 1 h pretreatment, EGF stimulation): 10 µM
EC50 (Cdc42 [14]): 1070 nM
COX-2 IC50 Previously Published (COX-2): Not sig
IC50 (human COX-1): 990 nM
dose of maximal inhibitory activity against Rac1 (Rac1 [6]; 1 h preincubation, EGF stimulation): 50 µM
COX-2 IC50 Previously Published (purified ovine COX-2): Not sig
COX-1 IC50 Previously Published (purified ovine COX-1): Not sig
IC50 [12]: 7000 nM
IC50 (human COX-2): > 100000 nM

O=C(c1ccccc1)c1ccc2n1CC[C@@H]2C(=O)O [S-ketorolac]
efficacy against Rac1 (Rac1 [13]): < 50%
inhibition of Cdc42 (Cdc42 [10]; at 10 μM): non-inhibitory
EC50 (Cdc42 [14]): > 10000 nM
eudismic ratio (EC50/EC50) (human COX-1; for cyclooxygenases, S-enantiomer relative to R-enantiomer): 100
IC50 (human COX-1): < 10 nM
inhibition of Rac1 (Rac1 [6]; at 50 μM): non-inhibitory
IC50 [12]: > 100000 nM
IC50 (human COX-2): 85 nM

CCN(CC)CCCC(C)Nc1nc(C)cc(Nc2ccc3nc(C)cc(N)c3c2)n1 (stereo not shown) [NSC23766]
IC50 [15]: < 30000 nM
